# Test results taken from patent publication US11596611B2, “Hepatitis B antiviral agents” (ENANTA PHARMACEUTICALS, INC., priority 2017, dated 2023).
# Experiments:
# [1] = Compound toxicity by ATPLite (total ATP levels); format: cell-based; conditions: human, three days after compound addition, 50% reduction of total ATP
# Protocol: Methods: HepAD38 cells are maintained as previously reported (Ladner et al, Antimicrob. Agents Chemother. 1997, […], 1715). Briefly, cells are passaged upon attaining confluency in DMEM/F12 media in the presence of 10% FBS, Penn/Strep, 250 μg/mL G418, and 1 ug/ml tetracycline. Novel compounds are screened by first washing cells three times with PBS to remove tetracycline, and plating in 96 well plates at 35,000 cells/well. Compounds dissolved in DMSO are then diluted 1:200 into wells containing cells. Five days after compound addition, material is harvested for analysis. For an extended 8 days analysis, cells are plated and treated as described above, but media and compound are refreshed on d2 and d5 post initial treatment.
# Compound toxicity is evaluated by seeding cells at 15,000 cells/well and treating with compound as described above.
# [2] = system: HBV; assay: HepAD38 antiviral assay: reduction of viral product accumulation (virion DNA by qPCR, HBsAg or HBeAg by ELISA); format: cell-based, hepatitis B virus; conditions: Hepatitis B virus, 120 h; HepAD38 cells, five days after compound addition; 50% reduction of viral product vs no drug controls; read-out: HepAD38 EC50
# Method in brief: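 Tetracycline-free HepAD38 cells exposed to compound (DMSO stock diluted 1:200) for 5 days, or 8 days with media and compound refreshed on d2 and d5. Virion DNA quantified by qPCR after lysis; HBsAg or HBeAg measured by ELISA on diluted samples.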
Compound,CC50 at 3 days ([1]; class symbols) [µM],EC50 [2] [µM],CC50 at 3 days ([1]; numeric bounds) [µM]
C[C@H](O)C(=O)[C@]1(O)C2CCC1C[C@@H](S(=O)(=O)c1cc(C(=O)Nc3ccc(F)c(F)c3)ccc1Cl)C2 [Example 345],> 25,< 0.104,–
CC(C)(C)OC(=O)N[C@@H](Cc1ccccc1)C(=O)N1C2CCC1CC(S(=O)(=O)c1cc(C(=O)Nc3cc(F)c(F)c(F)c3)ccc1Cl)C2 (some centres unmarked) [Example 152],> 25,> 0.2,–
CC(=O)OC[C@H](O)[C@@H](O)[C@@]1(O)C2CC[C@H]1C[C@H](S(=O)(=O)c1cc(C(=O)Nc3cc(F)c(F)c(F)c3)ccc1Cl)C2 (relative stereo) [Example 68],> 25,< 0.104,–
CC(O)CNC(=O)C[C@]1(O)C2CCC1C[C@@H](S(=O)(=O)c1cc(C(=O)Nc3cc(F)c(F)c(F)c3)ccc1Cl)C2 (some centres unmarked) [Example 54],> 25,< 0.104,–
COC(=O)[C@H]1O[C@@H](OC[C@@]2(O)C3CC[C@H]2C[C@H](S(=O)(=O)c2cc(C(=O)Nc4ccc(F)c(F)c4)ccc2Cl)C3)[C@H](OC(C)=O)[C@@H](OC(C)=O)[C@@H]1OC(C)=O [Example 329],> 25,< 0.104,–
O=C(Nc1cc(F)c(F)c(F)c1)c1ccc(Cl)c(S(=O)(=O)[C@H]2CC3CCC(C2)[C@]3(O)COC(CCO)CCO)c1 [Example 61],–,< 0.104,> 6.25
C[C@@H](O)CNC(=O)C[C@]1(O)C2CCC1C[C@@H](S(=O)(=O)c1cc(C(=O)Nc3ccc(F)c(F)c3)ccc1Cl)C2 [Example 186],–,< 0.104,> 12.5
C[C@@H](O)CNC(=O)C[C@]1(O)C2CCC1C[C@@H](S(=O)(=O)c1cc(C(=O)Nc3ccc(F)c(C(F)F)c3)ccc1Cl)C2 [Example 155],> 25,< 0.104,–
CC(=O)[C@@H](O)[C@@]1(O)C2CC[C@H]1C[C@H](S(=O)(=O)c1cc(C(=O)Nc3ccc(F)c(F)c3)ccc1Cl)C2 [Example 331],> 25,< 0.104,–
O=C(Nc1ccc(F)c(F)c1)c1ccc(Cl)c(S(=O)(=O)[C@H]2CC3CCC(C2)[C@]3(O)C(O)Cc2ccncc2)c1 (some centres unmarked) [Example 317],> 25,< 0.104,–
CC(C)(O)C[C@@]1(O)C2CC[C@H]1C[C@H](S(=O)(=O)c1cc(C(=O)Nc3ccc(F)c(F)c3)ccc1Cl)C2 [Example 193],> 25,< 0.104,–
COC[C@@H](O)COC[C@]1(O)C2CCC1C[C@@H](S(=O)(=O)c1cc(C(=O)Nc3cc(F)c(F)c(F)c3)ccc1Cl)C2 [Example 122],> 25,< 0.104,–
O=C(C[C@]1(O)C2CCC1C[C@@H](S(=O)(=O)c1cc(C(=O)Nc3cc(F)c(F)c(F)c3)ccc1Cl)C2)NC1(CO)CC1 [Example 117],–,< 0.104,> 6.25
CO[C@@H](C)CNC(=O)C[C@]1(O)C2CCC1C[C@@H](S(=O)(=O)c1cc(C(=O)Nc3ccc(F)c(F)c3)ccc1Cl)C2 [Example 188],–,< 0.104,> 12.5
O=C(Nc1ccc(F)c(F)c1)c1ccc(F)c(S(=O)(=O)[C@@H]2CC3CC[C@@H](C2)[C@@]3(O)CO)c1 [Example 325],> 25,< 0.104,–
C=CCS(=O)(=O)NC[C@]1(O)C2CCC1C[C@@H](S(=O)(=O)c1cc(C(=O)Nc3cc(F)c(F)c(F)c3)ccc1Cl)C2 [Example 39],–,< 0.104,> 6.25
O=C(NC[C@@]1(O)C2CC[C@H]1C[C@H](S(=O)(=O)c1cc(C(=O)Nc3cc(F)c(F)c(F)c3)ccc1Cl)C2)C1=CCCC1 [Example 41],–,< 0.104,> 6.25
C=C1CC1C(=O)NC[C@@]1(O)C2CC[C@H]1C[C@H](S(=O)(=O)c1cc(C(=O)Nc3cc(F)c(F)c(F)c3)ccc1Cl)C2 (some centres unmarked) [Example 66],10 to 25,< 0.104,–
O=C(Nc1cc(F)c(F)c(F)c1)c1ccc(Cl)c(S(=O)(=O)[C@H]2CC3CCC(C2)[C@]3(O)CNC(=O)C2CCCCO2)c1 (some centres unmarked) [Example 91],10 to 25,< 0.104,–
O=C(Nc1cc(F)c(F)c(F)c1)c1ccc(Cl)c(S(=O)(=O)[C@H]2CC3CCC(C2)[C@]3(O)CNC(=O)C2CCCOC2)c1 (some centres unmarked) [Example 90],–,< 0.104,> 6.25

Compound,CC50 at 3 days ([1]; class symbols) [µM],EC50 [2] [µM],CC50 at 3 days ([1]; numeric bounds) [µM]
CC(C)(O)CNC(=O)C[C@]1(O)C2CCC1C[C@@H](S(=O)(=O)c1cc(C(=O)Nc3ccc(F)c(F)c3)ccc1Cl)C2 [Example 187],–,< 0.104,> 12.5
"C[C@@H](O)COC[C@]1(O)C2CCC1C[C@@H](S(=O)(=O)c1cc(C(=O)Nc3cc(F)c(F)c(F)c3)ccc1Cl)C2 (single isomer, unassigned) [Example 130]",–,< 0.104,> 12.5
C[C@H](O)[C@@H](O)[C@]1(O)C2CCC1C[C@@H](S(=O)(=O)c1cc(C(=O)Nc3cc(F)c(F)c(F)c3)ccc1Cl)C2 (racemic) [Example 5],–,< 0.104,> 3
C[C@@H](O)[C@@H](O)[C@]1(O)C2CCC1C[C@@H](S(=O)(=O)c1cc(C(=O)Nc3ccc(F)c(F)c3)ccc1Cl)C2 (mixture of isomers) [Example 172],> 25,< 0.104,–
C[C@H](O)CNC(=O)C[C@]1(O)C2CCC1C[C@@H](S(=O)(=O)c1cc(C(=O)Nc3ccc(F)c(C(F)F)c3)ccc1Cl)C2 [Example 129],> 25,< 0.104,–
O=C(Nc1ccc(F)c(C(F)F)c1)c1ccc(Cl)c(S(=O)(=O)[C@H]2CC3CCC(C2)[C@]3(O)CO)c1 [Example 151],> 25,< 0.104,–
C[C@H](O)COC[C@]1(O)C2CCC1C[C@@H](S(=O)(=O)c1cc(C(=O)Nc3ccc(F)c(F)c3)ccc1Cl)C2 [Example 176],–,< 0.104,> 6.25
C[C@H](O)CNC(=O)C[C@]1(O)C2CCC1C[C@@H](S(=O)(=O)c1cc(C(=O)Nc3cc(F)c(F)c(F)c3)ccc1Cl)C2 [Example 112],–,< 0.104,> 6.25
C[C@H](O)CNC(=O)C[C@]1(O)C2CCC1C[C@@H](S(=O)(=O)c1cc(C(=O)Nc3ccc(F)c(F)c3)ccc1Cl)C2 [Example 185],–,< 0.104,> 12.5
CC(C)(O)C1CN(C(=O)C[C@]2(O)C3CCC2C[C@@H](S(=O)(=O)c2cc(C(=O)Nc4cc(F)c(F)c(F)c4)ccc2Cl)C3)C1 [Example 93],–,< 0.104,> 6.25
O=C(Nc1ccc(F)c(F)c1)c1ccc(Cl)c(S(=O)(=O)[C@H]2CC3CCC(C2)[C@]3(O)CNC(=O)c2nccs2)c1 [Example 168],10 to 25,< 0.104,–
CC(C)=CCNC(=O)C[C@]1(O)C2CCC1C[C@@H](S(=O)(=O)c1cc(C(=O)Nc3cc(F)c(F)c(F)c3)ccc1Cl)C2 [Example 52],> 25,< 0.104,–
O=C(Nc1cc(F)c(F)c(F)c1)c1ccc(Cl)c(S(=O)(=O)[C@H]2CC3CCC(C2)[C@]3(O)COCCO)c1 [Example 62],–,< 0.104,> 12.5
C[C@@H](O)[C@H](O)COC[C@]1(O)C2CCC1C[C@@H](S(=O)(=O)c1cc(C(=O)Nc3ccc(F)c(F)c3)ccc1Cl)C2 [Example 178],> 25,< 0.104,–
C[C@H](O)[C@@H](O)COC[C@]1(O)C2CCC1C[C@@H](S(=O)(=O)c1cc(C(=O)Nc3ccc(F)c(F)c3)ccc1Cl)C2 [Example 179],> 25,< 0.104,–
C[C@@H]1CN([C@H]2C3CCC2C[C@H](S(=O)(=O)c2cc(C(=O)Nc4ccc(F)c(F)c4)ccc2Cl)C3)C(=O)O1 [Example 344],> 25,< 0.104,–
O=C(Nc1ccc(F)c(F)c1)c1ccc(Cl)c(S(=O)(=O)[C@@H]2CC3CC[C@@H](C2)[C@@]3(O)C(O)c2cnoc2)c1 (some centres unmarked) [Example 303],> 25,< 0.104,–
O=C(Nc1cc(F)c(F)c(F)c1)c1ccc(Cl)c(S(=O)(=O)[C@H]2CC3CCC(C2)[C@]3(O)CC(=O)N2CC(O)C2)c1 [Example 92],–,< 0.104,> 6.25
CC(CO)NC(=O)C[C@]1(O)C2CCC1C[C@@H](S(=O)(=O)c1cc(C(=O)Nc3cc(F)c(F)c(F)c3)ccc1Cl)C2 (some centres unmarked) [Example 55],> 25,< 0.104,–
Cc1ccnc(C(O)[C@@]2(O)C3CC[C@H]2C[C@H](S(=O)(=O)c2cc(C(=O)Nc4ccc(F)c(F)c4)ccc2Cl)C3)c1 (some centres unmarked) [Example 296],> 25,< 0.104,–
